One block for each compound: values may come before it.
Columns and labels:
[1] = tested on: homodimer formation of ERK2; assay: Fluorescent focus detection of ERK2 homodimer formation after EGF, serum-starved HEK293 cells (Example 11); format: cell-based
Procedure: HEK293 cells were selected as cells into which the expression vectors prepared above were introduced. The cells were first cultured in DMEM (high glucose) supplemented with 10% FBS (manufactured by Equitech-Bio Inc.) and 1% penicillin-streptomycin. Then, on the day before the introduction of the expression vectors, these cells were seeded onto a 35-mm dish, and cultured in 1.5 ml of the culture solution. […] Thereafter, each solution of the expression vectors was added to the cultured cells. The pERK2-hmAG1PB1 transfected cells were observed 20 hours after the vector introduction. To the pERK2-PB1-hmAG1 transfected cells, G418 was added at a concentration of 500 μg/mL, and further cultured for one week. After that, viable cells were detached using a trypsin solution, diluted with a culture solution containing G418 (500 μg/ml), and then cultured in a 96-well plate at 0.5 cells/well. Subsequently, cells which formed single colonies were cultured to expand.
Then, the cells were observed using an IX-71 inverted fluorescence microscope (the magnification of the objective lens: 20×), a U-MGFPHQ filter, and an ORCA-ER digital camera. The homodimer formation of ERK2 was induced by adding EGF (epidermal growth factor, manufactured by Sigma-Aldrich Co.) to the buffer to the final concentration of 50 ng/ml. FIGS. 26 and 27 show images before the EGF addition and 8 minutes after the addition.

[2] = target: T1, FKBP12 mutant homodimer formation (Homo sapiens, UniProt P62942, F37V); assay: Comparative Example 1: method of PTL 4 (PB1-FKBP12 mutant and AG-FKBP12 mutant) for FKBP12 mutant homodimer formation in HEK293 cells; format: cell-based; conditions: method of PTL 4, 66 minutes after the drug addition
T1 construct: expressed in transfected cells; host or cells: HEK293
Procedure: In the detection system described in PTL 4, the PB1 domain of the p62 protein was selected as the association-inducing protein. Moreover, AG was selected as the fluorescent multimerizable protein, and a DNA encoding humanized-codon AG (hAG) was used.
Further, an expression vector (pPB1-FKBP12 mutant) encoding a fusion protein composed of the FKBP12 mutant fused to the C-terminus of the PB1 domain of the p62 protein was prepared as follows. Specifically, a DNA having the nucleotide sequence of SEQ ID NO: 31 was artificially synthesized which contained restriction enzyme sites at either end of a DNA having a nucleotide sequence encoding the FKBP12 mutant (the DNA encoding a protein having the amino acid sequence of SEQ ID NO: 32). Then, the obtained synthetic DNA was cleaved with EcoRI and XhoI, and inserted into pAsh-MCLinker (manufactured by MEDICAL & BIOLOGICAL LABORATORIES CO., LTD.) having been treated with a combination of the same restriction enzymes. Thus, a pPB1-FKBP12 mutant was constructed. […]
Further, 100 ng of each of the expression vectors thus constructed was mixed, that is, 200 ng of these were mixed in total, and fluorescent foci in cells before and after the drug addition were detected according to the same methods as <Cell Culturing and Transfection> and <Observation of Cells> described in Example 1.
Target sequence in this assay (P62942 2-108 F37V limits assumed): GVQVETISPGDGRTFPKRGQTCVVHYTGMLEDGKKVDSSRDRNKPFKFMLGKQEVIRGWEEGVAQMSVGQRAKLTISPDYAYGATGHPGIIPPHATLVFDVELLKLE

[3] = target: T1, FKBP12 mutant homodimer formation; assay: FKBP12 mutant homodimer formation with DG1 or mCherry as fluorescent protein, HEK293 cells (Example 8); format: cell-based; conditions: 500 nM, 1, 2 and 3 hours, room temperature; PB1-DG1-FKBP12 mutant and PB1-mCherry-FKBP12 mutant
Text: To express the PB1-hDG1-FKBP12 mutant or the PB1-mCherry-FKBP12 mutant in cells, the vectors encoding these fusion proteins were introduced into HEK293 cells by the same method as that described in Example 4.
After the transfection treatment, the HEK293 cells were observed using an IX-81 inverted microscope and an ORCA-Flash 4.0 digital camera. A U-MNIBA3 filter (manufactured by Olympus Corporation) and a U-MWIG3 filter (manufactured by Olympus Corporation) were used respectively for the DG1 and mCherry observations. The homodimer formation of the FKBP12 mutant was induced by adding 500 nM B/B Homodimerizer. After the drug addition, the resultant was left standing at room temperature. The cells were observed after 1, 2, and 3 hours elapsed. FIGS. 22 and 23 show images before the drug addition and 1, 2, and 3 hours after the addition.
Target sequence in this assay (P62942 2-108 F37V limits assumed): as above

[4] = target: T1, FKBP12 mutant homodimer formation; assay: FKBP12 mutant homodimer formation with SAM domain of Tankyrase 1 as multimerizable protein, HEK293 cells (Example 9); format: cell-based; conditions: 500 nM, 3 hours, room temperature; Tankyrase-mAG1-FKBP12 mutant
Procedure: HEK293 cells were cultured in DMEM (high glucose) supplemented with 10% FBS and 1% penicillin-streptomycin. Then, on the day before the transfection, the cells were seeded onto an 8-well chamber slide. The cells were cultured in 200 μL of the culture solution per well. Subsequently, a DNA solution was prepared by mixing 200 ng of the plasmid with 10 μL of OptiMEM, and 0.8 μl of Fugene HD (manufactured by Promega Corporation) was added thereto and then stirred. The resultant was further mixed with 100 μl of the culture solution, then added to the HEK293 cells, and cultured for 20 hours.
After the transfection treatment, the HEK293 cells were observed using an IX-81 inverted microscope and an ORCA-Flash 4.0 digital camera. A U-MNIBA3 filter was used for the observation. The homodimer formation of the FKBP12 mutant was induced by adding 500 nM B/B Homodimerizer to the medium. In addition, after the drug was added, the resultant was left standing at room temperature. The cells were observed after 3 hours elapsed.
Target sequence in this assay (P62942 2-108 F37V limits assumed): as above

[5] = target: T1, FKBP12 mutant homodimer formation; assay: Reversible FKBP12 mutant homodimer formation in HEK293 cells constitutively expressing PB1-hmAG1-FKBP12 mutant, spot detection image analysis (Example 2); format: cell-based
Procedure: The pPB1-hmAG1-FKBP12 mutant was introduced into HEK293 cells, and cells constitutively expressing the fusion protein according to the present invention (PB1-hmAG1-FKBP12 mutant) were prepared. Specifically, on the day before the introduction of the expression vector, HEK293 cells were seeded onto a 35-mm dish (manufactured by BD Falcon), and cultured in 1.5 mL of the culture solution. Then, 1 μg of the pPB1-hmAG1-FKBP12 mutant was diluted with 100 μL of OptiMEM (manufactured by Life Technologies Corporation), and 10 μL of PolyFect (registered trademark) Transfection Reagent (manufactured by QIAGEN N.V.) was added thereto and then stirred. […] Thereafter, G418 was added thereto at a concentration of 500 μg/mL, and further cultured for one week. After that, viable cells were detached using a trypsin solution, diluted with a culture solution containing G418 (500 μg/ml), and then cultured in a 96-well plate at 0.5 cells/well. […]
The images captured over time by the above method were analyzed using spot detection (spot detector) of an icy image analysis program (icy.bioimageanalysis.org/). Moreover, from the images, a graph was created in which the X axis represents the operation time (minutes), and the Y axis represents a numerical value of a total fluorescence intensity in regions of the fluorescent foci within boxes drawn around the regions by lines.
Target sequence in this assay (P62942 whole entry F37V): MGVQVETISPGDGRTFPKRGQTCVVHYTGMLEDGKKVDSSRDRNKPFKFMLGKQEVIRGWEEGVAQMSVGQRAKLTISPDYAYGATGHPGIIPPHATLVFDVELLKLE

[6] = target: T1, FKBP12 mutant homodimer formation; assay: Fluorescent focus detection of FKBP12 mutant homodimer formation, PB1-mAG1-FKBP12 mutant transiently expressed in HEK293 cells (Example 1); format: cell-based; conditions: 500 nM
Procedure: Next, the pPB1-hmAG1-FKBP12 mutant prepared as described above was introduced into HEK293 cells, and the fusion protein according to the present invention was expressed in the cells. Specifically, first, HEK293 cells were cultured in DMEM (high glucose, manufactured by SIGMA ALDRICH CO.) supplemented with 10% FBS (manufactured by Equitech-Bio Inc.) and 1% penicillin-streptomycin (manufactured by Life Technologies Corporation). Then, on the day before the transfection, the HEK293 cells cultured in this manner were seeded onto an 8-well chamber slide (manufactured by Nunc A/S), and cultured in 200 μL of the culture solution per well. Subsequently, 100 ng of the pPB1-hmAG1-FKBP12 mutant was diluted with 10 μL of OptiMEM (manufactured by Life Technologies Corporation), and 0.4 μL of Turbofect Transfection Reagent (manufactured by Thermo Fisher Scientific Inc.) was added thereto and then stirred. Thereafter, the resultant was further mixed with 100 μL of the culture solution, then added to the HEK293 cells, and cultured for 20 hours.
After the transfection treatment, the HEK293 cells were observed using an IX-71 inverted fluorescence microscope (manufactured by Olympus Corporation, the magnification of the objective lens: 20×), a U-MGFPHQ filter (manufactured by Olympus Corporation), and an ORCA-ER digital camera (manufactured by Hamamatsu Photonics K. K.). […]
Target sequence in this assay (P62942 whole entry F37V): as above

[7] = tested on: homodimer formation of STAT3; assay: Fluorescent focus detection of STAT3 homodimer formation after IL-6, HEK293 cells constitutively expressing PB1-mAG1-STAT3 (Example 12); format: cell-based; conditions: 100 ng/ml, 50 minutes; none before addition
Procedure: HEK293 cells were selected as cells into which the expression vector prepared above was introduced. The cells were first cultured in DMEM (high glucose) supplemented with 10% FBS and 1% penicillin-streptomycin. Then, on the day before the introduction of the expression vector, these cells were seeded onto a 35-mm dish, and cultured in 1.5 ml of the culture solution. […] Thereafter, the mixture solution of the expression vector was added to the cultured cells. After that, G418 was added thereto at a concentration of 500 μg/mL, and further cultured for one week. Next, viable cells were detached using a trypsin solution, diluted with a culture solution containing G418 (500 μg/ml), and then cultured in a 96-well plate at 0.5 cells/well. Subsequently, cells which formed single colonies were cultured to expand.
Then, the cells were observed using an IX-71 inverted fluorescence microscope (the magnification of the objective lens: 20×), a U-MGFPHQ filter, and an ORCA-ER digital camera. The homodimer formation of STAT3 was induced by adding Human Recombinant IL-6 (manufactured by R&D SYSTEMS, INC.) to the buffer to the final concentration of 100 ng/ml.

[8] = tested on: calmodulin and M13 peptide tetramer formation (H1 receptor, calcium ion); conditions: 100 μM
Procedure: To express the fusion proteins in a combination of the following (A) or (B), the plasmid vectors prepared above were introduced into HeLaS3 cells by a method described below: • (A) Calumodulin-mAG1 and M13peptide-PB1; and • (B) Calumodulin-mUkG1 and M13peptide-PB1.
First, HeLaS3 cells were cultured in DMEM (low glucose) containing 10% FBS (manufactured by Equitech-Bio Inc.). Then, on the day before the transfection, the HeLaS3 cells were seeded onto a 35-mm glass base dish (manufactured by Asahi Glass Co., Ltd.). Subsequently, at the time of the transfection, the plasmids (1 μg+1 μg) were diluted with OptiMEM, and 10 μl of PolyFect(registered trademark) Transfection Reagent was added thereto and stirred. The resultant was further mixed with 600 μl of the culture solution, thereafter added to the HeLaS3 cells, and cultured for 22 hours.
Then, 100 μM histamine (manufactured by Wako Pure Chemical Industries, Ltd.) was added thereto, and fluorescence images were captured over time.

Compound: EGF: epidermal growth factor, manufactured by Sigma-Aldrich Co. (NSDSECPLSHDGYCLHDGVCMYIEALDKYACNCVVGYIGERCQYRDLKWWELR; UniProt P01133 971-1023, looked up)
fluorescent focus formation ([1]; 50 ng/ml, 8 minutes, ERK2-mAG1-PB1 transient, none before addition): fluorescent foci were observed in multiple cells
fluorescent focus formation ([1]; 8 minutes after EGF addition, cells constitutively expressing ERK2-PB1-hmAG1 (FIG. 27)): fluorescent foci indicating the homodimer formation of ERK2 were detected

fluorescence intensity relative to that before the addition ([5]; when formation of fluorescent foci started to be observed immediately after the B/B Homodimerizer addition): 1.9 times
Compound: CC[C@H](C(=O)N1CCCC[C@H]1C(=O)O[C@H](CCc1ccc(OC)c(OC)c1)c1cccc(OCC(=O)NCC(CNC(=O)COc2cccc([C@@H](CCc3ccc(OC)c(OC)c3)OC(=O)[C@@H]3CCCCN3C(=O)[C@@H](CC)c3cc(OC)c(OC)c(OC)c3)c2)CN(C)C)c1)c1cc(OC)c(OC)c(OC)c1 [B/B Homodimerizer]
fluorescent focus formation [2]: fluorescent foci were formed only in a few cells
fluorescent focus formation [3]: drug-addition dependent increases in fluorescent foci were observed
fluorescent focus formation [4]: fluorescent focus formations attributable to the addition of the drug
fluorescent focus formation ([5]; 500 nM, 90 minutes after the B/B Homodimerizer addition): distinctive fluorescent foci were observed in multiple cells
fluorescent focus formation ([6]; 38 minutes after the drug addition, none before addition): fluorescent foci were observed in multiple cells
fluorescent focus formation ([6]; 76 minutes after the addition): many cells which exhibited distinctive fluorescent foci were observed

Compound: IL-6: Human Recombinant IL-6, manufactured by R&D SYSTEMS, INC.
fluorescent focus formation [7]: fluorescent foci were observed in multiple cells

fluorescent focus formation ([8]; 60 seconds after the ligand was added, Calmodulin-mAG1 or Calmodulin-mUkG1 with M13peptide-PB1): fluorescent focus formation was detected
Compound: NCCc1c[nH]cn1 [histamine]
extinction of fluorescent foci ([8]; 300 seconds after the ligand addition (FIG. 35)): the fluorescent foci (assemblies) were extinguished

Source: patent US10761085B2, “Method for determining a protein-protein interaction” (MEDICAL & BIOLOGICAL LABORATORIES CO., LTD., priority 2014, dated 2020)
